What was measured:
Format in all cases: cell-based
[1] = tested on: clinical isolates of A. baumannii; assay: MIC for clinical isolates in RPMI (low iron) media (Table 4); design: key to MIC of Iron Chelators: NG = no growth in table 4; details: for MIC: Acinetobacter baumannii
Description: […] […] Tests were performed in triplicate. MIC of iron chelators were determined for noscomial ESKAPE pathogens.
For a number of strains, the iron chelators produced no growth of bacteria (NG).

[2] = tested on: A. baumannii AB 19606, AB 17978; assay: Checkerboard assay, chelator with antibiotic (FIC)
Description: Drug interactions were initially evaluated with the “checkerboard” microdilution design, which provided a matrix of all drug combinations assayed in terms of fractions of the previously determined MIC. The checkerboard microdilution design is described in R. J. Tallarida, “Drug Synergism: Its Detection and Applications,” Journal of Pharmacology and Experimental Therapeutics, 865-872 (2001); and in R. L. White, et al., (1996), supra. FIGS. 39A and 39B show the wellplates having different concentrations of iron chelator and antibiotic, as labeled along the x-axis and y-axis. […] The checkerboard assay was used to asses other combinations of iron chelators and antibiotics. The fractional inhibitory concentration index (FIC), which was calculated as follows: FIC=(MIC A in combination/MIC A)+(MIC B in combination/MIC B). […] Blank spaces indicate concentrations not tested. […] Against the species PA PAO1 and PA 27853, all the antibiotics except for Ami.

[3] = tested on: clinical isolates of A. baumannii; assay: MIC for clinical isolates in CAMHB media (Table 3); details: Acinetobacter baumannii
Description: Individual MICs were determined following the microdilution method recommended by CLSI in cationic-adjusted Mueller-Hinton Broth (CAMHB), or M9 media. […] Tests were performed in triplicate. MIC of iron chelators were determined for noscomial ESKAPE pathogens.

[4] = tested on: multi-drug resistant bacterial species; assay: Time kill method, synergy with rifampin (summary)
Description: (§1) Reductions in colony forming units (CFU)/mL were determined over time (time-kill assay) after exposure to VK28 and deferiprone (DFP), the two iron chelators that performed best in MIC assays when compared to controls. To better represent the iron content found in the human body, MIC and time-kill assays were also determined in minimal media and tissue culture media. Time-Kill assays were performed as previously described in G. P. Neupane et al., “In vitro time-kill activities of ciprofloxacin alone and in combination with the iron chelator deferasirox against Vibrio vulnificus,” European Journal of Clinical Microbiology and Infectious Diseases, 407-410 (2010); and R. L. White, et al., “Comparison of Three Different In Vitro Methods of Detecting synergy: Time-Kill, Checkerboard, and E test,” Journal of Antimicrobial Agents and Chemotherapy, 1914-1918 (1996). Initial inocula, for example 1×10^6 CFU/mL or 1×10^7 CFU/mL were challenged with iron chelator with and/or without an antibiotic. Cells were allowed to grow in CAMHB at 37° C. for 24 hours. Time-kill results were analyzed by determining the change in log 10 numbers of CFU/ml at 0, 6, and 24 h, compared to counts at 0 h. Antimicrobials were considered bactericidal at the lowest concentration that reduced the size of the original inoculum by >3 log 10 CFU/ml (99.9%) over each of the time periods and were considered bacteriostatic if the inoculum's size was reduced by 0 to <3 log 10 CFU/ml.

[5] = tested on: AB5075 a MDR-clinical isolate of A. baumannii; assay: Time-kill assay in CAMHB; details: 0.5×MIC, 1×MIC and 2×MIC; 0, 2 and 4 hours
Description: as §1
(§2) In this example, time-kill assays were performed as described in Example 9 using Apo6619 as the iron chelator against AB5075 (MRSN959), the MDR-clinical isolate of A. baumannii. The initial inocula was 1×10^6 CFU/mL, and were challenged with 0.5×MIC, 1×MIC and 2×MIC of Apo6619. Time-kill results were analyzed by determining the change in log 10 numbers of CFU/mL at 0, 2 and 4 hours.
as §2, with “VK28 or DFP” for “Apo6619”, “AB5075,” for “AB5075 (MRSN959),”, “either VK28 or DFP.” for “Apo6619.”, “at” for “at 0,”, “6” for “4”

[6] = AB3638, read-out: MIC of Iron Chelators
[7] = AB3785, read-out: MIC of Iron Chelators
[8] = AB3806, read-out: MIC of Iron Chelators
[9] = AB3917, read-out: MIC of Iron Chelators
[10] = AB4025, read-out: MIC of Iron Chelators
[11] = AB4026, read-out: MIC of Iron Chelators
[12] = AB4027, read-out: MIC of Iron Chelators
[13] = AB4052, read-out: MIC of Iron Chelators
[14] = AB4269, read-out: MIC of Iron Chelators
[15] = AB4448, read-out: MIC of Iron Chelators
[16] = AB4456, read-out: MIC of Iron Chelators
[17] = AB4490, read-out: MIC of Iron Chelators
[18] = AB4498, read-out: MIC of Iron Chelators
[19] = AB4795, read-out: MIC of Iron Chelators
[20] = AB4857, read-out: MIC of Iron Chelators
[21] = AB4878, read-out: MIC of Iron Chelators
[22] = AB4932, read-out: MIC of Iron Chelators
[23] = AB4957, read-out: MIC of Iron Chelators
[24] = AB4991, read-out: MIC of Iron Chelators
[25] = AB5001, read-out: MIC of Iron Chelators
[26] = AB5075, read-out: MIC of Iron Chelators
[27] = AB5197, read-out: MIC of Iron Chelators
[28] = AB5256, read-out: MIC of Iron Chelators
[29] = AB5674, read-out: MIC of Iron Chelators
[30] = AB5711, read-out: MIC of Iron Chelators

SMILES: CNC(=O)c1c(O)c(=O)cc(C)n1C1CC1 [Apo6619, 1-cyclopropyl-3-hydroxy-6-methyl-4-oxo-1,4-dihydro-pyridine-2-carboxylic acid methylamide]
- MIC of Iron Chelators ([1]; AB967): NG
- MIC of Iron Chelators ([1]; AB2828): NG
- MIC of Iron Chelators ([1]; AB3340): NG
- MIC of Iron Chelators ([1]; AB3560): NG
- MIC of Iron Chelators ([1]; AB3927): NG
- MIC [1, 6]: 250 µg/mL
- MIC [1, 7]: 125 µg/mL
- MIC [1, 8]: 250 µg/mL
- MIC [1, 9]: 250 µg/mL
- MIC [1, 10]: 250 µg/mL
- MIC [1, 11]: 250 µg/mL
- MIC [1, 12]: 250 µg/mL
- MIC [1, 13]: 250 µg/mL
- MIC [1, 14]: 125 µg/mL
- MIC [1, 15]: 250 µg/mL
- MIC [1, 16]: 250 µg/mL
- MIC [1, 17]: 250 µg/mL
- MIC [1, 18]: 250 µg/mL
- MIC [1, 19]: 250 µg/mL
- MIC [1, 20]: 250 µg/mL
- MIC [1, 21]: 250 µg/mL
- MIC [1, 22]: 250 µg/mL
- MIC [1, 23]: 250 µg/mL
- MIC [1, 24]: 125 µg/mL
- MIC [1, 25]: 250 µg/mL
- MIC [1, 26]: 250 µg/mL
- MIC [1, 27]: 250 µg/mL
- MIC [1, 28]: 250 µg/mL
- MIC [1, 29]: 250 µg/mL
- MIC [1, 30]: 250 µg/mL
- FIC ([2]; AB 17978, in combination with Amikacin): 0.75
- FIC ([2]; AB 17978, in combination with Cefotaxine): 0.75
- FIC ([2]; AB 17978, in combination with Colisitin (Colistin)): 0.75
- FIC ([2]; AB 17978, in combination with Doxycycline): 1.25
- FIC ([2]; AB 17978, in combination with Rifampin): 0.75
- FIC ([2]; AB 19606, in combination with Amikacin): 1.25
- FIC ([2]; AB 19606, in combination with Cefotaxine): 1.25
- FIC ([2]; AB 19606, in combination with Colisitin (Colistin)): 1.25
- FIC ([2]; AB 19606, in combination with Doxycycline): 2.25
- FIC ([2]; AB 19606, in combination with Rifampin): 0.75
- MIC ([3]; AB967, read-out: MIC of Iron Chelators): 250 µg/mL
- MIC ([3]; AB2828, read-out: MIC of Iron Chelators): 500 µg/mL
- MIC ([3]; AB3340, read-out: MIC of Iron Chelators): 250 µg/mL
- MIC ([3]; AB3560, read-out: MIC of Iron Chelators): 500 µg/mL
- MIC [3, 6]: 500 µg/mL
- MIC [3, 7]: 500 µg/mL
- MIC [3, 8]: 1000 µg/mL
- MIC [3, 9]: 500 µg/mL
- MIC ([3]; AB3927, read-out: MIC of Iron Chelators): 250 µg/mL
- MIC [3, 10]: 500 µg/mL
- MIC [3, 11]: 500 µg/mL
- MIC [3, 12]: 500 µg/mL
- MIC [3, 13]: 500 µg/mL
- MIC [3, 14]: 250 µg/mL
- MIC [3, 15]: 500 µg/mL
- MIC [3, 16]: 500 µg/mL
- MIC [3, 17]: 500 µg/mL
- MIC [3, 18]: 500 µg/mL
- MIC [3, 19]: 500 µg/mL
- MIC [3, 20]: 500 µg/mL
- MIC [3, 21]: 500 µg/mL
- MIC [3, 22]: 500 µg/mL
- MIC [3, 23]: 250 µg/mL
- MIC [3, 24]: 500 µg/mL
- MIC [3, 25]: 250 µg/mL
- MIC [3, 26]: 250 µg/mL
- MIC [3, 27]: 500 µg/mL
- MIC [3, 28]: 250 µg/mL
- MIC [3, 29]: 250 µg/mL
- MIC [3, 30]: 250 µg/mL
- synergy with rifampin, time kill method [4]: strong synergy
- time-kill effect [5]: bactericidal (considered bactericidal at the lowest concentration that reduced the size of the original inoculum by >3 log 10 CFU/ml (99.9%))

— patent publication US10064858B2, “Methods and compositions for treating bacterial infections with iron chelators” (THE UNITED STATES OF AMERICA, AS REPRESENTED BY THE …, priority 2011, dated 2018)
